tested on: A549; test: Anticancer activity against human A549 cells by alamar blue assay; assay type: functional, cell-based

In order of falling IC50:
1. CON([C@H]1CC[C@@]2(C)[C@H](CC[C@@H]3[C@@H]2CC[C@]2(C)[C@@H](C4=CC(=O)OC4)CC[C@]32O)C1)[C@@H]1O[C@H](CO)[C@@H](O)[C@H](O)[C@H]1O  1600 nM
2. CON([C@H]1CC[C@@]2(C)[C@H](CC[C@@H]3[C@@H]2CC[C@]2(C)[C@@H](C4=CC(=O)OC4)CC[C@]32O)C1)[C@@H]1O[C@H](CO)[C@@H](O)[C@H](N=[N+]=[N-])[C@H]1O  390 nM
3. CON([C@H]1CC[C@@]2(C)[C@H](CC[C@@H]3[C@@H]2CC[C@]2(C)[C@@H](C4=CC(=O)OC4)CC[C@]32O)C1)[C@@H]1O[C@H](CO)[C@@H](N=[N+]=[N-])[C@H](O)[C@H]1O  130 nM
4. CON([C@H]1CC[C@@]2(C)[C@H](CC[C@@H]3[C@@H]2CC[C@]2(C)[C@@H](C4=CC(=O)OC4)CC[C@]32O)C1)[C@@H]1OC[C@@H](N)[C@H](O)[C@H]1O  43 nM
5. CON([C@H]1CC[C@@]2(C)[C@H](CC[C@@H]3[C@@H]2CC[C@]2(C)[C@@H](C4=CC(=O)OC4)CC[C@]32O)C1)[C@@H]1O[C@H](CO)[C@@H](O)[C@H](N)[C@H]1O  34 nM
6. CON([C@H]1CC[C@@]2(C)[C@H](CC[C@@H]3[C@@H]2CC[C@]2(C)[C@@H](C4=CC(=O)OC4)CC[C@]32O)C1)[C@@H]1OC[C@@H](N=[N+]=[N-])[C@H](O)[C@H]1O  34 nM
7. CON([C@H]1CC[C@@]2(C)[C@H](CC[C@@H]3[C@@H]2CC[C@]2(C)[C@@H](C4=CC(=O)OC4)CC[C@]32O)C1)[C@@H]1O[C@H](CO)[C@@H](N)[C@H](O)[C@H]1O  20 nM
8. CON([C@H]1CC[C@@]2(C)[C@H](CC[C@@H]3[C@@H]2CC[C@]2(C)[C@@H](C4=CC(=O)OC4)CC[C@]32O)C1)[C@@H]1OC[C@@H](O)[C@H](N=[N+]=[N-])[C@H]1O  17 nM
9. CON([C@H]1CC[C@@]2(C)[C@H](CC[C@@H]3[C@@H]2CC[C@]2(C)[C@@H](C4=CC(=O)OC4)CC[C@]32O)C1)[C@@H]1OC[C@@H](O)[C@H](N)[C@H]1O  10 nM
